According to US20140350081A1, “INSECT G-COUPLED RECEPTORS USEFUL AS TARGETS FOR INSECTICIDES AND COMPOUNDS AND REAGENTS IDENTIFIED USING THE SAME” (priority 2011, published 2014):
Where two headings read alike, the source gives them in different places.

Assays:
[1] = target: Isdop2 (Ixodes scapularis, UniProt A0ACM8DGL0); assay: cell-based; settings: for inhibition at 10 µM: read-out: % Inhibition (of response to dopamine), Isdop2 screen
[2] = test system: Ae. aegypti L3 larvae; assay: whole plant or invertebrate; settings: Aedes aegypti
[3] = 10 μM compound, footnote 3 mM dopamine

Chain of Isdop2 (A0ACM8DGL0 entry or part of it): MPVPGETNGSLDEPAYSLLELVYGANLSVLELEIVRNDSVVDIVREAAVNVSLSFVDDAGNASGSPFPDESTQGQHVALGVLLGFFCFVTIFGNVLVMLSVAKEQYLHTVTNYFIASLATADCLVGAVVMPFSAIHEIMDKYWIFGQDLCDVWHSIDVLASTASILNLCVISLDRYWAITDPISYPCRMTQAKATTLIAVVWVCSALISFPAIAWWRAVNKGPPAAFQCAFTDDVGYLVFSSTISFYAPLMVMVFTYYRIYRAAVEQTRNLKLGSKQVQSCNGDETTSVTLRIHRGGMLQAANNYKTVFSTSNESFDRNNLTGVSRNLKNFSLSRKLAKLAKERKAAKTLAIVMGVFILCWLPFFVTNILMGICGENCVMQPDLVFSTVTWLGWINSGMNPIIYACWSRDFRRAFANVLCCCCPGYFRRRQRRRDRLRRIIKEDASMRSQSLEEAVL

`O=C1Nc2ccccc2/C1=C1/Nc2ccccc2/C1=N\O` [Indirubin-3′-oxime] was tested, and the “% Inhibition (of response to dopamine), Isdop2 screen” value (“% Inhibition” below) [1] was 93%.

For `CC1CNCCN1S(=O)(=O)c1cccc2cnccc12.Cl.Cl` (stereo not drawn) [H-7 dihydrochloride], the “% Inhibition” value [1] was 73%.

In the case of `O=c1c(-c2ccc(O)cc2)coc2cc(O)ccc12` [Daidzein], the inhibition at 10 µM [1] is reported as 77%.

Compound `O=c1cc(-c2ccc(O)cc2)oc2cc(O)cc(O)c12` [Apigenin] has an inhibition at 10 µM [1] of 98%.

With `COc1cccc(-c2cc(=O)c3ccccc3o2)c1N` [PD 98,059] the “% Inhibition” value [1, 3] was 87%.

For `CCn1cnc2c(Nc3cccc(Cl)c3)nc(N[C@@H]3CCCC[C@@H]3N)nc21.Cl` [CGP-74514A hydrochloride], the “% Inhibition” value [1] was 98%.

Compound `COc1ccccc1N1CCN(CCCCNC(=O)c2ccc3ccccc3c2)CC1` [BP 897] has an inhibition at 10 µM [1] of 71%.

With `CC(C)(C)c1cc(C=C(C#N)C#N)cc(C(C)(C)C)c1O` [Tyrphostin A9] the “% Inhibition” value [1, 3] was 87%.

`CN1CCN2c3ccccc3Cc3ccccc3C2C1` (racemic) [Mianserin, ((±)-2-methyl-1,2,3,4,10,14b-hexahydrodibenzo[c,f]pyrazino [1,2-a]azepine)] was tested, and the inhibition at 10 µM [1] was 87%.

With `CN1[C@@H]2CC[C@H]1C[C@@H](OC(c1ccccc1)c1ccccc1N)C2` (stereo partly drawn) [Aminobenztropine] the inhibition at 10 µM [1] was 71%.

Work on `C=C(C)[C@H]1Cc2c(ccc3c2O[C@@H]2COc4cc(OC)c(OC)cc4[C@@H]2C3=O)O1` [Rotenone] yielded an inhibition at 10 µM [1] of 77%.

Compound `c1ccc2c(c1)[I+]c1ccccc1-2` [Diphenyleneiodonium chloride] has an inhibition at 10 µM [1] of 78%.

With `CC(C)(C)c1cc(/C=C(\C#N)C(N)=S)cc(C(C)(C)C)c1O` [Tyrphostin AG 879] the “% Inhibition” value [1] was 75%.

With `CN1CCC(=C2c3ccccc3C=Cc3ccccc32)CC1` [Cyproheptadine] the inhibition at 10 µM [1] was 93%.

For `CCN(CC)C(=O)N[C@H]1C[C@@H]2c3cccc4[nH]cc(c34)C[C@H]2N(C)C1` [R(+)-Terguride], the “% Inhibition” value [1] was 68%.

For `O=C(N[C@@H](Cc1ccccc1)C(=O)CCl)OCc1ccccc1` [Z-L-Phe chloromethyl ketone], the “% Inhibition” value [1] was 90%.

`CN(C)CCC=C1c2ccccc2C=Cc2ccccc21` [Cyclobenzaprine] gave an inhibition at 10 µM [1] of 95%.

`CN1CCN(CCCN2c3ccccc3Sc3ccc(Cl)cc32)CC1` [Prochlorperazine, 2-chloro-10-[3-(4-methyl-1-piperazinyl)propyl]-10H-phenothiazine] showed an inhibition at 10 µM [1] of 86%.

`CN1CCc2cccc(Cl)c2CC1` [SKF86466] was tested, and the “% Inhibition” value [1, 3] was 86%.

`CNCCC(Oc1ccc(C(F)(F)F)cc1)c1ccccc1` (stereo not drawn) [Fluoxetine] showed a mortality at 400 µM ([2]; 24 h, read-out: Toxicity to Aedes aegypti larvae (mortality) 24 hours, 400 μM, L3 larvae, three independent experiments) of 43%, a mortality at 400 µM ([2]; 48 h, read-out: Toxicity to Aedes aegypti larvae (mortality) 48 hours, 400 μM, L3 larvae, three independent experiments) of 53% and a mortality at 400 µM ([2]; 72 h, read-out: Toxicity to Aedes aegypti larvae (mortality) 72 hours, 400 μM, L3 larvae, three independent experiments) of 53%.

`O=C1Nc2ccc(I)cc2/C1=C/c1cc(Br)c(O)c(Br)c1` [GW5074] was tested, and the “% Inhibition” value [1] was 81%.

`C[C@@H]1O[C@@H](O[C@H]2C[C@@H](O)[C@]3(CO)[C@H]4[C@H](O)C[C@]5(C)[C@@H]([C@@H]6COC(=O)C6)CC[C@]5(O)[C@@H]4CC[C@]3(O)C2)[C@H](O)[C@H](O)[C@H]1O` [Dihydroouabain] was tested, and the “% Inhibition” value [1, 3] was 76%.

With `Cc1nc2n(c(=O)c1CCN1CCC(c3noc4cc(F)ccc34)CC1)CCCC2` [Risperidone, 4-[2-[4-(6-fluorobenzo[d]isoxazol-3-yl)-1-piperidyl]ethyl]-3-methyl-2,6-diazabicyclo[4.4.0]deca-1,3-dien-5-one] the inhibition at 10 µM [1] was 100%.

With `COC1=C(OC)C(=O)c2ccccc2C1=O` [2,3-Dimethoxy-1,4-naphthoquinone] the inhibition at 10 µM [1] was 68%.

Compound `Cc1cc(N)c2ccccc2[n+]1CCCCCCCCCC[n+]1c(C)cc(N)c2ccccc21` [Dequalinium dichloride] has an inhibition at 10 µM [1] of 75%.
